What was measured:
Conditions in all cases: trolox equivalents
Total ORAC = assay: Total ORAC
Source text: (§1) Antiviral EO compositions as described herein can provide antioxidant properties to a subject or host system. Antioxidants can enhance neutrophil function, improve fertility, reduce heat stress related pregnancy losses, reduce frequency of retained placentas, and reduce metritis in dairy cows. Oxygen radical absorbance capacity (ORAC) is the ability of a compound or composition to act as a proton donor and reducing agent for oxygen radicals. In particular, ORAC measures the ability of a compound or composition to act as a reducing agent for peroxyl radicals, hydroxyl radicals, peroxynitrite, superoxide anion, and singlet oxygen, the five most damaging oxygen radicals.
(§2) ORAC capabilities of EO compositions were tested Brunswick Labs, Massachusetts. Table 20 illustrates the antioxidant ability of several embodiments provided herein, as compared to an industry standard antioxidant, Vitamin E. Results are expressed as trolox equivalents (TE/100 g) for each composition: […]

ORAC, superoxide anion = assay: ORAC, superoxide anion
Source text: as §1, §2

ORAC, hydroxyl radical = assay: ORAC, hydroxyl radical
Source text: as §1, §2

ORAC, peroxynitrite = assay: ORAC, peroxynitrite
Source text: as §1, §2

ORAC, singlet oxygen = assay: ORAC, singlet oxygen
Source text: as §1, §2

ORAC, peroxyl radical = assay: ORAC, peroxyl radical
Source text: as §1, §2

| Substance | Total ORAC (Total ORAC) [TE/100 g] | ORAC, Superoxide anion (ORAC, superoxide anion) [TE/100 g] | ORAC, Hydroxyl radical (ORAC, hydroxyl radical) [TE/100 g] | ORAC, Peroxynitrite (ORAC, peroxynitrite) [TE/100 g] | ORAC, Singlet oxygen (ORAC, singlet oxygen) [TE/100 g] | ORAC, Peroxyl radical (ORAC, peroxyl radical) [TE/100 g] |
| --- | --- | --- | --- | --- | --- | --- |
| Arabinogalactan | 96400 | 16600 | 46400 | 1200 | 11600 | 20600 |
| Vitamin E [Natural Vitamin E] | 39200 | 0 | 0 | 0 | 37100 | 2100 |
